Measured values reported in BindingDB's records for doi:10.1021/acs.jmedchem.6b01751 (Queen Mary University of London, 2017).
pIC50: −log10 of the molar value.

How the values were obtained:
[1] = Inhibition of RIP1 in mouse L929 cells assessed as reduction in TNFalpha/QVD-Oph-induced necrosis after 24 hrs by Cell Titer-Glo luminescent cell viability assay
[2] = Inhibition of RIP1 in human U937 cells assessed as reduction in TNFalpha/QVD-Oph-induced necrosis after 24 hrs by Cell Titer-Glo luminescent cell viability assay

## CN1C(=O)[C@@H](NC(=O)c2n[nH]c(Cc3ccccc3)n2)COc2ccccc21
[1]
  pIC50: 5.89

## CN1C(=O)[C@@H](NC(=O)c2cc(Cc3ccccc3)on2)COc2ccc(-c3n[nH]c(=O)o3)cc21
[2]
  pIC50: 8.49

## CN1C(=O)[C@@H](NC(=O)c2ncc(Cc3ccccc3)o2)COc2ccccc21
[2]
  pIC50: 9.00

## CN1C(=O)[C@@H](NC(=O)c2cc(Cc3ccccc3)n(C)n2)COc2ccccc21
[2]
  pIC50: 8.00

## CN1C(=O)[C@@H](NC(=O)c2nnc(Cc3ccccc3)o2)COc2ccccc21
[2]
  pIC50: 8.10

## CN1C(=O)[C@@H](NC(=O)c2noc(Cc3ccccc3)n2)COc2ccccc21
[2]
  pIC50: 8.30

## CN1C(=O)[C@@H](NC(=O)c2cnn(Cc3ccccc3)c2)COc2ccccc21
[2]
  pIC50: 6.20

## CN1C(=O)[C@@H](NC(=O)c2c[nH]c(Cc3ccccc3)n2)COc2ccccc21
[2]
  pIC50: 5.70

## O=C(N[C@H]1CCOc2ccccc2NC1=O)c1cc(Cc2ccccc2)on1
[2]
  pIC50: 6.20

## CN1C(=O)[C@@H](NC(=O)c2ncn(Cc3ccccc3)n2)COc2ccccc21
[2]
  pIC50: 8.80

## CN1C(=O)[C@@H](NC(=O)c2cc(Cc3ccccc3)ccn2)COc2ccccc21
[2]
  pIC50: 7.40

## CN1C[C@H](NC(=O)c2cc(Cc3ccccc3)on2)C(=O)N(C)c2ccccc21
[2]
  pIC50: 7.70

## CC(=O)Nc1ccc2c(c1)N(C)C(=O)[C@@H](NC(=O)c1cc(Cc3ccccc3)on1)CO2
[2]
  pIC50: 8.10

## CC(C)Cc1cc(C(=O)N[C@H]2COc3ccccc3N(C)C2=O)no1
[2]
  pIC50: 5.20

## CCCCCc1cc(C(=O)N[C@H]2COc3ccccc3N(C)C2=O)no1
[2]
  pIC50: 6.90

## COC(=O)Nc1ccc2c(c1)N(C)C(=O)[C@@H](NC(=O)c1cc(Cc3ccccc3)on1)CO2
[2]
  pIC50: 8.00

## CN1C(=O)[C@@H](NC(=O)c2cc(Cc3ccccc3)on2)COc2ccc(NS(C)(=O)=O)cc21
[2]
  pIC50: 7.89

## CN1C(=O)[C@@H](NC(=O)c2cc(Cc3ccccc3)on2)COc2ccc(-c3cc[nH]n3)cc21
[2]
  pIC50: 8.20

## CN1C(=O)[C@@H](NC(=O)c2coc(Cc3ccccc3)n2)COc2ccccc21
[2]
  pIC50: 5.60

## CN1C(=O)[C@@H](NC(=O)c2cn(Cc3ccccc3)nn2)COc2ccccc21
[2]
  pIC50: 7.60

## CN1C(=O)[C@@H](NC(=O)c2cccc(Cc3ccccc3)c2)COc2ccccc21
[2]
  pIC50: 6.40

## CN1C(=O)[C@@H](NC(=O)c2cc(CC3CCCCC3)on2)COc2ccccc21
[2]
  pIC50: 6.30

## CN1C(=O)[C@@H](NC(=O)c2cn(Cc3ccccc3)cn2)COc2ccccc21
[2]
  pIC50: 8.20

## CN1C(=O)[C@@H](NC(=O)c2nnn(Cc3ccccc3)n2)COc2ccccc21
[2]
  pIC50: 8.60

## CCN1C(=O)[C@@H](NC(=O)c2cc(Cc3ccccc3)on2)COc2ccccc21
[2]
  pIC50: 5.10
